Measured values as given in patent publication US10821115B2, “Compounds that inhibit Mcl-1 protein” (priority 2017, dated 2020).
pIC50: −log10 of the molar value. Where two headings read alike, the source gives them in different places.

How the values were obtained:
[1] = biological target: recombinant human Mcl-1 (residues 171-327) / Bim interaction (Homo sapiens (Human), UniProt Q07820); assay: biochemical; format: binding; settings: read-out: Mcl-1 HTRF IC50
[2] = tested on: human multiple myeloma cell line, OPM-2; assay: Cell viability assay (OPM-2 10 FBS), CellTiter-Glo; format: cell-based
How it was run: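 IC50 values come from 4-parameter logistic fits of luminescence signals reflecting cell viability. Treatment lasted 16 h at 37 °C in complete medium with 10% FBS, starting from 3000 cells/well.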

[3] = TR-FRET, Mcl-1(171-327) / biotin-Bim (51-76)
[4] = Homo sapiens, OPM-2, 16 h, read-out: OPM-2 10% FBS IC50 IP, OPM-2 cells, 10% FBS, 16 h, CellTiter-Glo
[5] = 0.1 nM Mcl-1(171-327), 0.05 nM biotin-Bim (51-76)
[6] = Homo sapiens, OPM-2, 16 h, read-out: OPM-2 10% FBS IC50 IP, OPM-2 cells, 10% FBS, 16 h incubation
[7] = read-out: OPM-2 10% FBS IC50 IP, OPM-2 cells, 10% FBS, 16 h, CellTiter-Glo

Chain of recombinant human Mcl-1 (residues 171-327) / Bim interaction (Q07820 171-327): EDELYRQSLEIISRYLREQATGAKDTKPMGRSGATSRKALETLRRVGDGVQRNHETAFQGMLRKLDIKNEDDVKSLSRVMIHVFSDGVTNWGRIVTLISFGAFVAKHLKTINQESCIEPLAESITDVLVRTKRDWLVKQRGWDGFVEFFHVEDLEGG

SMILES	pIC50 [1, 3]	pIC50 [2, 4]	further results
CO[C@@]1(CC(=O)N(C)C2CCCC2)/C=C/C[C@H](C)[C@@H](C)S(=O)(=O)NC(=O)c2ccc3c(c2)N(C[C@@H]2CC[C@H]21)C[C@@]1(CCCc2cc(Cl)ccc21)CO3 [Example 100405, 2-((1S,3′R,6′R,7′S,8′E,11′S,12′R)-6-chloro-7′-methoxy-11′,12′-dimethyl-13′,13′-dioxido-15′-oxo-3,4-dihydro-2H-spiro[naphthalene-1,22′-[20]oxa[13]thia[1,14]diazatetracyclo [14.7.2.0~3,6~.0~19,24~]pentacosa[8,16,18,24]tetraen]-7′-yl)-N-cyclopentyl-N-methylacetamide]	9.26	5.95	–
CC(C)O[C@]1(CN2CCN(C(C)C)[C@H](C)C2)/C=C/C[C@H](C)[C@@H](C)S(=O)(=O)NC(=O)c2ccc3c(c2)N(C[C@@H]2CC[C@H]21)C[C@@]1(CCCc2cc(Cl)ccc21)CO3 [Example 51]	–	–	pIC50 [1, 5]: 10.14; pIC50 [2, 6]: 7.00
CO[C@]1(CN(C)C)/C=C/C[C@H](C)[C@@H](C)S(=O)(=O)NC(=O)c2ccc3c(c2)N(C[C@@H]2CC[C@H]21)C[C@@]1(CCCc2cc(Cl)ccc21)CO3 [Example 69, (1S,3′R,6′R,7′R,8′E,11′S,12′R)-6-chloro-7′-((dimethylamino)methyl)-7′-methoxy-11′,12′-dimethyl-3,4-dihydro-2H,15′H-spiro[naphthalene-1,22′-[20]oxa[13]thia[1,14]diazatetracyclo [14.7.2.0~3,6~.0~19,24~]pentacosa[8,16,18,24]tetraen]-15′-one 13′,13′-dioxide]	–	–	pIC50 [1, 5]: 8.42; pIC50 [2, 6]: 5.83
COC(OC)c1cncc([C@]2(OC)/C=C/C[C@H](C)[C@@H](C)S(=O)(=O)NC(=O)c3ccc4c(c3)N(C[C@@H]3CC[C@H]32)C[C@@]2(CCCc3cc(Cl)ccc32)CO4)c1 (single isomer, unassigned) [Example 100514]	10.06	6.64	–
C[C@@H]1[C@@H](C)C/C=C/[C@](O)(c2ccc(F)cn2)[C@@H]2CC[C@H]2CN2C[C@@]3(CCCc4cc(Cl)ccc43)COc3ccc(cc32)C(=O)NS1(=O)=O [Example 100403, (1S,3′R,6′R,7′R,8′E,11′S,12′R)-6-chloro-7′-(5-fluoro-2-pyridinyl)-7′-hydroxy-11′,12′-dimethyl-3,4-dihydro-2H,15′H-spiro[naphthalene-1,22′-[20]oxa[13]thia[1,14]diazatetracyclo [14.7.2.0~3,6~.0~19,24~]pentacosa[8,16,18,24]tetraen]-15′-one 13′,13′-dioxide]	9.65	6.41	–
Cc1ccnc(C[C@@]2(O)/C=C/C[C@H](C)[C@@H](C)S(=O)(=O)NC(=O)c3ccc4c(c3)N(C[C@@H]3CC[C@H]32)C[C@@]2(CCCc3cc(Cl)ccc32)CO4)c1 [Example 100532, (1S,3′R,6′R,7′R,8′E,11′S,12′R)-6-chloro-7′-hydroxy-11′,12′-dimethyl-7′-((4-methyl-2-pyridinyl)methyl)-3,4-dihydro-2H,15′H-spiro[naphthalene-1,22′-[20]oxa[13]thia[1,14]diazatetracyclo [14.7.2.0~3,6~.0~19,24~]pentacosa[8,16,18,24]tetraen]-15′-one 13′,13′-dioxide]	10.28	5.06	–
C[C@@H]1[C@@H](C)CCC[C@@]2(C[C@H]2C(=O)N2CCN3CCOC[C@H]3C2)[C@@H]2CC[C@H]2CN2C[C@@]3(CCCc4cc(Cl)ccc43)COc3ccc(cc32)C(=O)NS1(=O)=O [Example 100304, (1R,2R,3′R,6′R,11′S,12′R,22′S)-6″-chloro-2-((9aR)-hexahydropyrazino[2,1-c][1,4]oxazin-8(1H)-ylcarbonyl)-11′,12′-dimethyl-3″,4″-dihydro-2″H,15′H-dispiro[cyclopropane-1,7′-[20]oxa[13]thia[1,14]diazatetracyclo [14.7.2.0~3,6~.0~19,24~]pentacosa[16,18,24]triene-22′,1″-naphthalen]-15′-one 13′,13′-dioxide]	9.51	–	pIC50 [2, 7]: 6.33
CCC[C@@]1(O)/C=C/C[C@H](C)[C@@H](C)S(=O)(=O)NC(=O)c2ccc3c(c2)N(C[C@@H]2CC[C@H]21)C[C@@]1(CCCc2cc(Cl)ccc21)CO3 [Example 100209, (1S,3′R,6′R,7′R,8′E,11′S,12′R)-6-chloro-7′-hydroxy-11′,12′-dimethyl-7′-propyl-3,4-dihydro-2H,15′H-spiro[naphthalene-1,22′-[20]oxa[13]thia[1,14]diazatetracyclo [14.7.2.0~3,6~.0~19,24~]pentacosa[8,16,18,24]tetraen]-15′-one 13′,13′-dioxide]	–	5.47	pIC50 [1]: 8.57
C[C@@H]1[C@@H](C)C/C=C/[C@](O)(CC(=O)N(C)c2ccccc2)[C@@H]2CC[C@H]2CN2C[C@@]3(CCCc4cc(Cl)ccc43)COc3ccc(cc32)C(=O)NS1(=O)=O (single isomer, unassigned) [Example 100248]	7.96	5.18	–
CO[C@@]1(CN2CCN3C[C@@H](C)OC[C@@H]3C2)/C=C/C[C@H](C)[C@@H](C)S(=O)(=O)NC(=O)c2ccc3c(c2)N(C[C@@H]2CC[C@H]21)C[C@@]1(CCCc2cc(Cl)ccc21)CO3 [Example 147, (1S,3′R,6′R,7′S,8′E,11′S,12′R)-6-chloro-7′-methoxy-11′,12′-dimethyl-7′-(((3R,9aS)-3-methylhexahydropyrazino[2,1-c][1,4]oxazin-8(1H)-yl)methyl)-3,4-dihydro-2H,15′H-spiro[naphthalene-1,22′-[20]oxa[13]thia[1,14]diazatetracyclo [14.7.2.0~3,6~.0~19,24~]pentacosa[8,16,18,24]tetraen]-15′-one 13′,13′-dioxide]	–	–	pIC50 [1, 5]: 9.42; pIC50 [2, 6]: 6.80
C[C@@H]1[C@@H](C)C/C=C/C(O)(Cc2nccn2C)[C@@H]2CC[C@H]2CN2C[C@@]3(CCCc4cc(Cl)ccc43)COc3ccc(cc32)C(=O)NS1(=O)=O (stereo in doubt) [Example 100524, (1S,3′R,6′R,7′R,8′E,11′S,12′R)-6-chloro-7′-hydroxy-11′,12′-dimethyl-7′-((1-methyl-1H-imidazol-2-yl)methyl)-3,4-dihydro-2H,15′H-spiro[naphthalene-1,22′-[20]oxa[13]thia[1,14]diazatetracyclo [14.7.2.0~3,6~.0~19,24~]pentacosa[8,16,18,24]tetraen]-15′-one 13′,13′-dioxide]	9.00	6.07	–
C[C@@H]1[C@@H](C)C/C=C/[C@](O)(C(C)(C)C#N)[C@@H]2CC[C@H]2CN2C[C@@]3(CCCc4cc(Cl)ccc43)COc3ccc(cc32)C(=O)NS1(=O)=O [Example 100060, 2-((1S,3′R,6′R,7′R,8′E,11′S,12′R)-6-chloro-7′-hydroxy-11′,12′-dimethyl-13′,13′-dioxido-15′-oxo-3,4-dihydro-2H-spiro[naphthalene-1,22′-[20]oxa[13]thia[1,14]diazatetracyclo [14.7.2.0~3,6~.0~19,24~]pentacosa[8,16,18,24]tetraen]-7′-yl)-2-methylpropanenitrile]	8.40	–	pIC50 [2, 7]: 5.22
COCC[C@@H]1[C@@H](C)C/C=C/[C@](CN2CCN(C)CC2)(OC)[C@@H]2CC[C@H]2CN2C[C@@]3(CCCc4cc(Cl)ccc43)COc3ccc(cc32)C(=O)NS1(=O)=O [Example 180, (1S,3′R,6′R,7′S,8′E,11′S,12′R)-6-chloro-7′-methoxy-12′-(2-methoxyethyl)-11′-methyl-7′-((4-methyl-1-piperazinyl)methyl)-3,4-dihydro-2H,15′H-spiro[naphthalene-1,22′-[20]oxa[13]thia[1,14]diazatetracyclo [14.7.2.0~3,6~.0~19,24~]pentacosa[8,16,18,24]tetraen]-15′-one 13′,13′-dioxide]	–	–	pIC50 [1, 5]: 9.97; pIC50 [2, 6]: 7.09
CO[C@@]1(Cc2nccs2)/C=C/C[C@H](C)[C@@H](C)S(=O)(=O)NC(=O)c2ccc3c(c2)N(C[C@@H]2CC[C@H]21)C[C@@]1(CCCc2cc(Cl)ccc21)CO3 [Example 100525, (1S,3′R,6′R,7′S,8′E,11′S,12′R)-6-chloro-7′-methoxy-11′,12′-dimethyl-7′-(1,3-thiazol-2-ylmethyl)-3,4-dihydro-2H,15′H-spiro[naphthalene-1,22′-[20]oxa[13]thia[1,14]diazatetracyclo [14.7.2.0~3,6~.0~19,24~]pentacosa[8,16,18,24]tetraen]-15′-one 13′,13′-dioxide]	8.48	5.84	–
C[C@@H]1[C@@H](C)C/C=C/C(O)(Cc2nccn2C)[C@@H]2CC[C@H]2CN2C[C@@]3(CCCc4cc(Cl)ccc43)COc3ccc(cc32)C(=O)NS1(=O)=O (stereo in doubt) [Example 100523, (1S,3′R,6′R,7′S,8′E,11′S,12′R)-6-chloro-7′-hydroxy-11′,12′-dimethyl-7′-((1-methyl-1H-imidazol-2-yl)methyl)-3,4-dihydro-2H,15′H-spiro[naphthalene-1,22′-[20]oxa[13]thia[1,14]diazatetracyclo [14.7.2.0~3,6~.0~19,24~]pentacosa[8,16,18,24]tetraen]-15′-one 13′,13′-dioxide]	9.09	6.21	–
C=C(F)C[C@@]1(OC)/C=C/C[C@H](C)[C@@H](C)S(=O)(=O)NC(=O)c2ccc3c(c2)N(C[C@@H]2CC[C@H]21)C[C@@]1(CCCc2cc(Cl)ccc21)CO3 [Example 100568, (1S,3′R,6′R,7′R,8′E,11′S,12′R)-6-chloro-7′-(2-fluoro-2-propen-1-yl)-7′-methoxy-11′,12′-dimethyl-3,4-dihydro-2H,15′H-spiro[naphthalene-1,22′-[20]oxa[13]thia[1,14]diazatetracyclo [14.7.2.0~3,6~.0~19,24~]pentacosa[8,16,18,24]tetraen]-15′-one 13′,13′-dioxide]	9.37	5.81	–
